# From article PMC4741952, “Small molecule RL71 targets SERCA2 at a novel site in the treatment of human colorectal cancer” (Oncotarget, 2015)
# Target: T1, SERCA2 (Homo sapiens, UniProt P16615)
# T1 construct: gene ATP2A2; endogenous SERCA2 in SW480 whole-cell lysates
# Experiment: competition by […] free RL71 of the RL71-biotin streptavidin pull-down (LC/MS, anti-SERCA2 western blot); Ca2+-ATPase inhibition in treated SW480 cells
# Format: cell-based
# T1 sequence (P16615 whole entry): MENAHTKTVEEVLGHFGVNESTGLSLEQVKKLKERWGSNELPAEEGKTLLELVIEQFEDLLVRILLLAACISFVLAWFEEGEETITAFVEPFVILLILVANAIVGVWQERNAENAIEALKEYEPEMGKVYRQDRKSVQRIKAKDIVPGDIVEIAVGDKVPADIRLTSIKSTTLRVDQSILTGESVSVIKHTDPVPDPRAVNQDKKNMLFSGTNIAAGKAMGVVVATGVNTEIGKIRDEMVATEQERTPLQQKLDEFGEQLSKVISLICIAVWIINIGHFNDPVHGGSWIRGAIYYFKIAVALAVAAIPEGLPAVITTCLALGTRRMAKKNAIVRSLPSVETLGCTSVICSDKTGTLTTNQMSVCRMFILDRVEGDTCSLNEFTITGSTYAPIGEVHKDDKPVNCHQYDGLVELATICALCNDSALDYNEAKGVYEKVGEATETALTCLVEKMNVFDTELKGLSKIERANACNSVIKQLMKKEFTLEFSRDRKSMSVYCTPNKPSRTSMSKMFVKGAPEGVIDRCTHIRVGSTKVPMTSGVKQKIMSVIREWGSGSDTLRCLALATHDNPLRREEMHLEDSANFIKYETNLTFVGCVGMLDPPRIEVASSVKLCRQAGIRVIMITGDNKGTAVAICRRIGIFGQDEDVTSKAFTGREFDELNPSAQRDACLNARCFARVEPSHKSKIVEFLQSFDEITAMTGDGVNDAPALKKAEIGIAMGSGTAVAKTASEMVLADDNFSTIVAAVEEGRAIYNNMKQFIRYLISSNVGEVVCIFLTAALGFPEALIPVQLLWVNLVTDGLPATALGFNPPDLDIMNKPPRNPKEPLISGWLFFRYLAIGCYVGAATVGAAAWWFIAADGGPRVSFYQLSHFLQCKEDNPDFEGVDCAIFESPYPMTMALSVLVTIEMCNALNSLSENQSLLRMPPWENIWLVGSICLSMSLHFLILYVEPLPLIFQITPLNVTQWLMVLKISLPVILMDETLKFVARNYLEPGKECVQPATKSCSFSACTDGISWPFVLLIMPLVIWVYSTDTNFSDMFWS
smiles,measurement,value
"COc1cc(C=C2CN(C)CC(=Cc3cc(OC)c(OC)c(OC)c3)C2=O)cc(OC)c1OC [compound 1, 3,5-bis(3,4,5-trimethoxybenzylidene)-1-methylpiperidine-4-one]",competition by 200 μM free RL71 of the RL71-biotin streptavidin pull-down (LC/MS),The interaction between RL71-biotin and SERCA2 could be competed by RL71.
